Data set [1] deals with antigen induced arthritis (AIA). As to the kind of experiment: Antigen induced arthritis (AIA) rat model, knee joint swelling. The data set is classed as in vivo. The conditions noted are these: for reduction of knee swelling relative to the vehicle control group: 24 h after arthritis induction; for difference of absolute increase of knee swelling (induced minus un-induced knee): one day after arthritis induction.

Data set [2] deals with white blood cells in peripheral blood. Briefly: Haematology (WBC, neutrophil granulocytes, lymphocytes) in AIA rats. The data set is classed as in vivo, rat. The method, then: For the blood withdrawal the animals were narcotized briefly, the tail was disinfected and the tail vein was punctured with a cannula, 50 μl of blood were withdrawn with a heparin coated pipette and mixed with 5 μl of a stabilising agent (CPD) and 1 μl heparin (1.5 U/μl diluted 1:4 in 0.9% NaCl).
White Blood Cells (WBC) were counted with a Coulter Counter in the automatic mode.
Blood samples were taken regularly for monitoring of hematological parameters. Haematological parameters were assessed in all animals weekly before induction, at day of induction and 10 days after induction (days −21, −14, −7, 0 and 10). […] Absolute counts of white blood cells (WBC), neutrophil granulocytes and lymphocytes were analyzed among others, the last two also stated in percentage of total WBC. EDTA whole blood of seven individuals from both vehicle and cgtx-544 peptide therapy group was measured with Sysmex XT-2000i.
For screening the state of health of all individuals, complete haemograms were used again. EDTA whole blood of seven individuals from both MTX high-dose and low-dose therapy groups were measured with Sysmex XT-2000i.V weekly before induction, at day of induction and 4 and 7 days after induction (day −21, −14, −7, 0, 4 and 7; MTX low-dose therapy group additionally on day −3, when i.v. application started).

The target in a further data set is T1, Kv1.2 (Homo sapiens, UniProt P16389).
T1 construct: expressed in transfected cells; host or cells: CHO cells, stably transfected
As to the kind of experiment: Patchliner electrophysiology on Kv1.2 in stably transfected CHO cells (Example 8). The data set is classed as cell-based. The method, then: (§1) Ion channels were expressed via Baculovirus (Kv1.1-, Kv1.3- and Kv1.5-constructs) infected Sf21 cells or stably transfected CHO cells (Kv1.2) as described in Examples 1, 2, and 4. Electrophysiological analysis was performed on the automated patch clamp device “Patchliner” (Nanion Technologies, Munich, Germany). The Patchliner is based on a planary patch clamp method borosilicate glass chip (NPC-16) instead of a glass pipettes. The Patchliner is able to record four cells at the same time. All channel recordings were made in the whole cell mode. Data recordings were performed with the PatchMaster software (HEKA Electronics, Lambrecht/Pfalz, Germany). Visualization of experimental results was realized with IGOR software (Wavemetrics, USA). Average data are presented as mean±standard error of the mean (SEM).
(§2) Test compounds were used as concentrated stock solutions (mostly 1.5 μg/μl). Stock solutions were diluted in buffer to the required final concentrations.
A general note: The patch-clamp technique gives a direct electrical read-out from membranes.

The target of another data set is T2, Kv1.5 (Homo sapiens, UniProt P22460).
T2 construct: expressed in transfected cells; host or cells: Sf21 insect cells, baculovirus infection
As to the kind of experiment: Patchliner electrophysiology on Kv1.5 in Baculovirus infected Sf21 cells (Example 8). The data set is classed as cell-based. As to conditions: 10 μM solution.

The target of data set [3] is T3, Kv1.3 (Homo sapiens, UniProt P22001). Briefly: Patchliner electrophysiology of cgtx-544(Sing) on Kv1.3 in Baculovirus infected Sf21 cells (Example 8). The data set is classed as cell-based. The method, then:
as §1, §2
After chemical synthesis (see Example 7) the peptide was folded by oxidation with atmospheric oxygen and the correctly folded (biologically active) peptide fraction was purified by preparative HPLC. This purified cgtx-544 peptide was designated cgtx-544(Sing) for singular peak.

The target of a further data set is T4, Kv1.1 (Homo sapiens, UniProt Q09470).
T4 construct: expressed in transfected cells; host or cells: Sf21 insect cells, baculovirus infection
Briefly: Patchliner electrophysiology on Kv1.1 in Baculovirus infected Sf21 cells (Example 8). The data set is classed as cell-based. The method, then: as §1, §2

Data set [4] in a line: Solubility and stability in 0.9% NaCl solution. The data set is classed as physicochemical. The method, then: This peptide solution is being folded by oxidation (formation of disulfide bonds). The folding method is based on bond formation in phosphate buffer at pH 8.3 in the presence of atmospheric oxygen. […] Thus, after the folding reaction the active peptide (retention time 12.77 min) was purified from the cgtx-544 mixture of folded and partially folded peptides by preparative HPLC. After this purification step the active peptide—referred to as cgtx-544(Sing)—usually has an estimated purity of more than 95%.

In data set [5] the target is T3, Kv1.3. As to the kind of experiment: Kv1.3 block with prolonged incubation times. The data set is classed as cell-based. The conditions noted are these: incubation about 20 min, after folding and purification.
A further data set in a line: in vivo. As to conditions: rat. The data set is classed as in vivo. The method, then:
FIG. 34 Decrease of cgtx-544(Sing) in the serum of treated rats after i.v. injection. The concentration of unbound circulating cgtx-544(Sing) was calculated on the basis of a standard curve. Standard error of the mean is depicted in the error bars (n=6).
Rats received i.v. injections of cgtx-544(Sing) (750 μg/kg BW). Blood was withdrawn at time points 0, 1, 10 and 60 minutes. Subsequently, serum was prepared from blood samples. The cgtx-544 content in these samples was analyzed electrophysiologically by measuring the blocking effect on Kv1.3 channels expressed in CHO cells. […] In order to study the amount of unbound cgtx-544(Sing) in the rat, the amount of cgtx-544(Sing) present in the circulating blood at the time points referred above was calculated through a calibration curve. This calibration curve was obtained by adding known quantities of cgtx-544(Sing) to blood serum and subsequent electrophysiological measurements on Kv1.3 channels. The block of Kv1.3 currents by these spiked samples was similar to that obtained with cgtx-544(Sing) in the absence of serum (data not shown).

The target of data set [6] is T3, Kv1.3. Briefly: Decay of cgtx-544(Sing) in human blood serum at 37° C., blocking activity on Kv1.3 (Example 9). The data set is classed as in vitro ADME. As for the experimental part: FIG. 33 Decay of cgtx-544(Sing) in human serum at 37° C. A known amount of cgtx-544(Sing) was added to human blood serum from 3 blood donors and incubated at 37° C. for a period of 57 days. The blocking activity of the peptide was measured on Kv1.3 channels over this period. The peptide remains stable for 16 h, and it can still be detected after 45 days. At 57 days the blocking effect is no longer visible. Decay is depicted as the reduction of concentration of cgtx-544 (Sing) as determined by: C(t)=IC50 (t0)/IC50(t).C0. The decay is fitted by a simple decay curve: C (t)=C0.2(−t/t1/2), where C0 is the initial concentration of peptide in solution, t0 is the 0 min incubation at 37° C. point, and t1/2 is the half-life.
Further to the experiments described in Example 3, the stability of the cgtx-544 peptide was tested in blood serum samples under in vitro conditions. Thus, the stability of cgtx-544(Sing) in human blood serum was determined by the addition of a known quantity of cgtx-544(Sing) to human blood serum and a subsequent incubation at 37° C. The blocking activity of ctx-544(Sing) was measured on Kv1.3 channels over a period of 57 days. cgtx-544(Sing) is extremely stable in human blood serum. Its activity remains constant for at least 16 hours, and decays slowly until no more peptide blocking effect is detectable after 57 days.

The mark [7] stands for this setting: high-dose 1 mg/kg 1× weekly s.c.
Where [8] appears, read: low-dose 100 μg/kg 1× daily i.v.
Where [9] appears, read: high-dose 1 mg/kg 1× weekly s.c., day 7.
Setting [10] is: high-dose 1 mg/kg 1× weekly s.c., day −7.
The mark [11] stands for this setting: high-dose 1 mg/kg 1× weekly s.c., seven days after induction.
Setting [12] is: low-dose 100 μg/kg 1× daily i.v., day 7.

Usually IC50 stands for the concentration that inhibits the measured activity by half. Low readings indicate inhibition by little substance, high ones a need for much substance. The term half-life denotes the time needed for the level to fall by half in the phase considered.

T1 sequence (P16389 whole entry): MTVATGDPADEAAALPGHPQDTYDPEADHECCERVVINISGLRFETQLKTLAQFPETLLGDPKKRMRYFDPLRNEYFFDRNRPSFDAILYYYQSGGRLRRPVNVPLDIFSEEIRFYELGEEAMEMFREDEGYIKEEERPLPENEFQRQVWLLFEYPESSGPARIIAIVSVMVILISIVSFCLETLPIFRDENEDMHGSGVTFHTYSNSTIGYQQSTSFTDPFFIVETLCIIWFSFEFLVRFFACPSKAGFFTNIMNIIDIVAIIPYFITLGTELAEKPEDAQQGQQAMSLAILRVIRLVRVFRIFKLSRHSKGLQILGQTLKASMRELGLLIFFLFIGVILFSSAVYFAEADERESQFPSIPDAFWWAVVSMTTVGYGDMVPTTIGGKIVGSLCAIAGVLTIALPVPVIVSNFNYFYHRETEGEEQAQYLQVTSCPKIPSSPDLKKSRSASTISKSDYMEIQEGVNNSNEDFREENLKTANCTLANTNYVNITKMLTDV
T3 sequence (P22001 whole entry): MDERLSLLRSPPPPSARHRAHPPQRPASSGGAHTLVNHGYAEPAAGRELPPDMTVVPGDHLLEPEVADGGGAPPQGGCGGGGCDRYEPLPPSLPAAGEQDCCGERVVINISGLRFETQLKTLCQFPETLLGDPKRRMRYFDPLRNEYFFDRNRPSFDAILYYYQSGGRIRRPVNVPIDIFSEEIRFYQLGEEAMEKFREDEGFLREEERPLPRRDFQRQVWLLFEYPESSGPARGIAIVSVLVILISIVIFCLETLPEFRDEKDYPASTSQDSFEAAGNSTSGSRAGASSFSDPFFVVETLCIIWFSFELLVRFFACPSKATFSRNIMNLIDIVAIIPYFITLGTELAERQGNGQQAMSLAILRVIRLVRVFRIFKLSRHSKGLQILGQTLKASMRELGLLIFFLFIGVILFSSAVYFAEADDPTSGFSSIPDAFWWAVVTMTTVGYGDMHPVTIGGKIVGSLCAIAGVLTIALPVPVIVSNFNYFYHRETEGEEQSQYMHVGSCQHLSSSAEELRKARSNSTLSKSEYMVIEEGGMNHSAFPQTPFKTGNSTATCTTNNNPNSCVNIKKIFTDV
T4 sequence (Q09470 whole entry): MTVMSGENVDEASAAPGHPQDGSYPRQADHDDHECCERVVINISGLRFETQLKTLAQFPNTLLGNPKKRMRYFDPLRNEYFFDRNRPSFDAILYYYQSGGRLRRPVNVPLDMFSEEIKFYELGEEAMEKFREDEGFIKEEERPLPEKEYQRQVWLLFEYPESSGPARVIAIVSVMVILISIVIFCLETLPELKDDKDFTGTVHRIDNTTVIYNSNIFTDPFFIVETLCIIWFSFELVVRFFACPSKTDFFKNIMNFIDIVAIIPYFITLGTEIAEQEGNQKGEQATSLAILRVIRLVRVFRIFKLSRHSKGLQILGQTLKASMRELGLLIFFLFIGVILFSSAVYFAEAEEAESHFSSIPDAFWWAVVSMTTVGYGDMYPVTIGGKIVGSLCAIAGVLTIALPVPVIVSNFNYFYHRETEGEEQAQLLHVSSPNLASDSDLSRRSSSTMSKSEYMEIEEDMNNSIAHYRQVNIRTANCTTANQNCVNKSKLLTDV
T2 sequence (P22460 whole entry): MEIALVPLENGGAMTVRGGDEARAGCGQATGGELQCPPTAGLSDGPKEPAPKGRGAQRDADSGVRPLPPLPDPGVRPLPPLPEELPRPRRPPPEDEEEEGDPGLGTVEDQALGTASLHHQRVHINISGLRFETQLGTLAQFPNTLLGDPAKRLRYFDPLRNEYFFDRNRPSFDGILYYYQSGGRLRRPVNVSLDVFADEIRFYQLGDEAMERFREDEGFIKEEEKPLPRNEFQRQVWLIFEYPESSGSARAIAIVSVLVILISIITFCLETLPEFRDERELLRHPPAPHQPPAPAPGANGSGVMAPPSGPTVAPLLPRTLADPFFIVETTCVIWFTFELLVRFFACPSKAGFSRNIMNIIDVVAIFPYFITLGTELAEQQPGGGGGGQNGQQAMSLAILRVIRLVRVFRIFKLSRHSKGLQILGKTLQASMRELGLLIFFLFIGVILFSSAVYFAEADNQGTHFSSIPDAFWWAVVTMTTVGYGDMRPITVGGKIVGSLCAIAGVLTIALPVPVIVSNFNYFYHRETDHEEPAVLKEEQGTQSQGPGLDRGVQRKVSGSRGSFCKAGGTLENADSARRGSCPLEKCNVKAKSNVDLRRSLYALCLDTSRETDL

`CN(Cc1cnc2nc(N)nc(N)c2n1)c1ccc(C(=O)N[C@@H](CCC(=O)O)C(=O)O)cc1` [MTX, Methotrexate]: in [1] (setting [7]), the “relative difference of knee swelling (normalized)” value turned out to be 0.39±0.16, the “reduction of knee swelling relative to the vehicle control group” value is reported as 15% and the “difference of absolute increase of knee swelling (induced minus un-induced knee)” value is reported as 3.17±1.26 mm. Also, in [1] (setting [8]), the “relative difference of knee swelling (normalized)” value is 0.43±0.11, the “reduction of knee swelling relative to the vehicle control group” value is reported as 7% and the “difference of absolute increase of knee swelling (induced minus un-induced knee)” value was 3.45±0.87 mm. In data set [2] (setting [9]), the WBC count is reported as 14.68±2.15 ×10^3/μl, the absolute lymphocyte count was 11.38±1.15 ×10^3/μl and the lymphocyte percentage was 78.16±7.20 % of WBC. In [2] (setting [10]), the WBC count was 20.79±5.96 ×10^3/μl, the absolute lymphocyte count was 11.68±2.8 ×10^3/μl, the “absolute neutrophil granulocyte count” value is given as 7.54±3.19 ×10^3/μl and the lymphocyte percentage is on record as 57.01±6.45 % of WBC. For the same molecule, the relative neutrophils in data set [2] (setting [10]) is on record as 35.46±7.08 % of WBC. Moreover, in data set [2] (setting [11]), the “absolute neutrophil granulocyte count” value is given as 1.94±1.1 ×10^3/μl and the relative neutrophils is recorded as 12.63±6.1 % of WBC. Besides, in data set [2] (setting [12]), the WBC count is recorded as 6.63±1.37 ×10^3/μl, the absolute lymphocyte count is 6.14±1.11 ×10^3/μl, the “absolute neutrophil granulocyte count” value is reported as 0.33±0.36 ×10^3/μl and the “decrease of WBC counts compared to the beginning of the experiment” value was around 50%. In addition, in data set [2] (setting [12]), the lymphocyte percentage is 93.13±4.66 % of WBC and the relative neutrophils is recorded as 4.41±4.63 % of WBC. The “effect in the haemogram compared to the vehicle control group” value in data set [2] (low-dose treated individuals, seven days after arthritis induction) was “reduction of WBC count, neutrophil granulocyte count and lymphocyte count”.
In the case of `CC[C@H](C)[C@H](NC(=O)[C@@H](N)[C@@H](C)O)C(=O)N[C@H](C(=O)N[C@@H](CC(N)=O)C(=O)N[C@H](C(=O)N[C@@H](CCCCN)C(=O)N[C@H]1CSSC[C@@H]2NC(=O)[C@H](CCCCN)NC(=O)CNC(=O)[C@H](Cc3ccc(O)cc3)NC(=O)[C@@H]3CCCN3C(=O)[C@@H]3CSSC[C@@H](C(=O)O)NC(=O)[C@H](CCCNC(=N)N)NC(=O)[C@H](CC(N)=O)NC(=O)[C@@H]4CSSC[C@H](NC(=O)[C@@H]5CCCN5C(=O)[C@@H]5CCCN5C(=O)[C@H](CC(C)C)NC(=O)[C@H](CSSC[C@H](NC(=O)[C@H](CCCCN)NC(=O)[C@H](CCCNC(=N)N)NC(=O)[C@H](CC(N)=O)NC(=O)[C@H](CCSC)NC2=O)C(=O)N[C@@H](CCCCN)C(=O)N4)NC(=O)[C@H](CCC(N)=O)NC(=O)[C@H](CCCCN)NC(=O)[C@@H]2CCCN2C(=O)[C@H](CO)NC(=O)[C@H]([C@@H](C)O)NC1=O)C(=O)N[C@@H](CCCCN)C(=O)N[C@@H](C)C(=O)N[C@@H](CCC(N)=O)C(=O)N[C@@H]([C@@H](C)O)C(=O)NCC(=O)N3)C(C)C)[C@@H](C)CC` [cgtx-544(Sing)], the concentration for half-maximal inhibition (IC50) is 2500 nM on Kv1.2, 6.9 nM at Kv1.3 [3], around 6000 nM on Kv1.1 and around 0.9 nM at Kv1.3 [5]. The “effect on Kv1.2 currents” value at Kv1.2 (100 nM solution, stably transfected CHO cells) is recorded as “did not alter”; on Kv1.2 (concentrations >1 μM), “only slightly reduced currents”. Further, the “reduction of Kv1.5 currents” value at Kv1.5 is reported as “did not induce a significant reduction”. Besides, the solubility entry in [4] (0.9% NaCl solution) is recorded as “highly soluble”. In data set [4] (0.9% NaCl solution at RT and 4° C.), the stability in solution entry was “up to several weeks”. In “in vivo” (in vivo, iv, 750 ug/kg, 750 μg/kg BW), the half-life is around 26 min. The “blocking activity of serum sample relative to the 1 minute sample” value in “in vivo” (750 μg/kg BW i.v., 60 minutes) is 10%. The “approximate concentration in the circulating blood” value in the data set “in vivo” (i.v., 750 μg/kg BW) is around 62 nM. In addition, the “time after which the peptide can still be detected” value on Kv1.3 [6] (human blood serum, 37° C.) was 45 days. Also, the “time at which blocking effect is no longer visible” value on Kv1.3 [6] (human blood serum, 37° C.) amounted to 57 days. Further, the “period for which 50% activity was retained” value at Kv1.3 [6] (human serum at 37° C.) is listed as 5 days.

(Values after US10800815B2, “Kv1.3 potassium channel antagonists” (cgtx-Peptide Development GmbH, priority 2014, dated 2020).)
